Where two headings read alike, the source gives them in different places.
Assays:
[1] = system: human rhabdomyosarcoma RH-30 xenograft; test: RH-30 xenograft on nude mice; settings: Table 4, 5 mg/kg po, 1-5/2 w;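 further: male BALB/cA nude mice with subcutaneous RH-30 tumors, oral dosing versus solvent-fed controls, caliper tumor volume, RTV relative to grouping day, T/C as treated RTV over control RTV ×100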
Description: Animals: BALB/cA nude mice, male, 40-45 days old, body weight: 21±2 g, provided by Shanghai Institute of Materia Medica, Chinese Academy of Sciences. License No.: SCXK (Shanghai) 2004-0002. Animal number in each group: 6 in negative control group, and 6 in administration group.
The amount of inoculated cells was 5×10^6. After the xenograft was formed by inoculation, it was used after passed for 3 generations in nude mice.

[2] = system: DNFB-induced delayed type hypersensitivity reaction; test: DNFB-induced delayed type hypersensitivity reaction in mice; assay type: in vivo, BALB/c mice; settings: 2 mg/kg/d, oral administration; model control 0.175 mm
Description: The delayed type hypersensitivity (DTH) reaction in mice was induced by DNFB to evaluate the inhibition effect of the compound on DTH in vivo. […] Preparation method: the compound was dissolved in anhydrous alcohol to prepare a stock solution (50 mg/ml), which was diluted to the desired concentration when use by using a solution of 5% PEG400, 5% Tween-80 in sterile water as a solvent. […] DNFB combined with dermal protein to form a complete antigen after sensitizing on feet of mice. One week later, mice were attacked by DNFB on ears to induce a local delayed allergic reaction, i.e., the delayed type hypersensitivity reaction to cause ear swelling, while the delayed type hypersensitivity reaction would not be observed on the ear which had not been attacked. Therefore, the ear swelling can reflect the level of the delayed type hypersensitivity reaction in mice induced by DNFB. (1) 20 μl of 0.5% DNFB solution in a mixture of acetone and olive oil (4:1) as a solvent was applied on both hind legs of mice for sensitization. […] (4) Thickness of the left and right ears of the mice was measured by a micrometer screw gauge, and the swelling was calculated by subtracting the thickness of the left ear from thickness of the right ear.

T Cells = test: Immunosuppressive activity assay: T cells inhibitory activity; assay type: cell-based; settings: T-cell; Table 10
[3] = Immunosuppressive activity assay: cytotoxicity; assay type: cell-based
[4] = system: human osteosarcoma U2SO xenograft; test: U2SO xenograft on nude mice; settings: Table 5, oral 2.5 mg/kg, 1-5/3 w
FKBP-12 protein = molecular target: T1, FKBP-12 protein (Homo sapiens, UniProt P62942); test: SPR (surface plasma resonance) binding with FKBP-12
T1 construct: purchased sigma Co
T1 sequence (P62942 whole entry, species assumed): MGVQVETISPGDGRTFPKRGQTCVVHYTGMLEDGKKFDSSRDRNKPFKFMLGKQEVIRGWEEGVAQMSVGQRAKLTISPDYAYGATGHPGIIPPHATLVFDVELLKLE
Description: (1) FKBP-12 protein was purchased from sigma Co.
(2) HBS-EP buffer solution (10 mM Hepes, 150 mM NaCl, 3.4 mM EDTA, 0.005% (v/v) surfactant P20, pH 7.4)
(3) Activating reagents EDC and NHS, and blocking reagents Ethanolamine, etc., were purchased from BIACORE AB Co. (Uppsala, Sweden).
(4) BIAcore 3000 and CM5 chip were purchased from BIACORE AB Co. (Uppsala, Sweden).
(2) […] was coupled to the FC2 channel on CM5 chip by using the Wizard for amino-coupling in Biacore 3000 controlling soft. 3.3 g/L of FKBP-12 protein was diluted with 10 mM NaAC (pH 4.6) to 66 μg/ml. The surface of the chip was washed by injecting a mixture of 0.1M1-(3-dimethylaminopropyl)-3-ethylcarbodiimide hydrochloride (EDCI) and 0.1M N-hydroxysuccinimide (NHS) (1:1) at a flow rate of 20 μL/min for 7 min. After that, the protein solution was injected, and then a 1M cholamine (pH 8.5) solution was fed for 7 min to block the activated surface of the chip. Preliminary screening and pharmacokinetic tests on the compounds
The binding abilities of small molecular compounds with FKBP-12 protein were evaluated by SPR (surface plasma resonance). The stock solution of the compound was 10 mM, and was diluted by HBS-EP buffer solution at given ratios. Pharmacokinetic tests were carried out by the Wizard for kinetic analysis in Biacore 3000 controlling soft. The resulted data were fitted by 1:1 Langmuir binding model or stability model in Biacore 3000 analytical soft to obtain the exact kinetic and thermodynamic constants.

in vivo = assay type: in vivo; settings: nude, mouse; for concentration at 0.5 h / concentration at 12 h / concentration at 48 h / concentration at 2 h / concentration at 5 h: CCI-779 (prototype) concentration; for Kp: read-out: AUCtissue/AUCplasma
[5] = in vivo, Blood Plasma, Mean Value

**Q.** Which “Body Weight (g) end” value [1] does the source give for CO[C@H]1CC2CC[C@@H](C)[C@@](O)(O2)C(=O)C(=O)N2CCCCC2C(=O)O[C@H]([C@H](C)C[C@@H]2CC[C@@H](O)[C@H](OC)C2)CC(=O)[C@H](C)/C=C(\C)[C@@H](OC(=O)OCC(O)CO)[C@@H](OC)C(=O)[C@H](C)C[C@H](C)/C=C/C=C/C=C/1C (some centres unmarked) [Y31-1] here?
**A.** 21.2 g

**Q.** What about the “Body Weight (g) start” value [1] of the same compound?
**A.** 20.2 g

**Q.** And the RTV [1]?
**A.** 2.4 ± 1.0

**Q.** What about the “T/C (%)” value [1] of the same compound?
**A.** 55.7%

**Q.** What about the “TV (mm^3) d14” value [1] of the same compound?
**A.** 381 ± 158 mm^3

**Q.** What about the “TV (mm^3) d0” value ([1]; baseline) of the same compound?
**A.** 164 ± 44 mm^3

**Q.** With C[C@@H]1C[C@H]2[C@@H]3CCC4=CC(=O)C=C[C@]4(C)[C@@]3(F)[C@@H](O)C[C@]2(C)[C@@]1(O)C(=O)CO [Dex] as the compound, how does the “average ear swelling degree” value [2] read?
**A.** 0.13 mm

**Q.** With CO[C@H]1CC2CC[C@@H](C)[C@@](O)(O2)C(=O)C(=O)N2CCCCC2C(=O)O[C@H]([C@H](C)C[C@@H]2CC[C@@H](OC(=O)OCC3COC(C)(C)O3)[C@H](OC)C2)CC(=O)[C@H](C)/C=C(\C)[C@@H](OC(=O)OCC2COC(C)(C)O2)[C@@H](OC)C(=O)[C@H](C)C[C@H](C)/C=C/C=C/C=C/1C (some centres unmarked) [Y230] as the compound, how does the IC50 (T Cells) read?
**A.** 5.3 µM

**Q.** And the “Safety Index CC50/IC50” value ([3]; Table 10)?
**A.** >18.9

**Q.** What about the CC50 ([3]; Table 10, value beyond the >100 μM bound, read-out: Cytotoxicity CC50, value in brackets) of the same compound?
**A.** 39800 µM

**Q.** What about the CC50 ([3]; Table 10, read-out: Cytotoxicity CC50) of the same compound?
**A.** > 100 µM

**Q.** For CO[C@H]1C[C@@H]2CC[C@@H](C)[C@@](O)(O2)C(=O)C(=O)N2CCCC[C@H]2C(=O)O[C@H]([C@H](C)C[C@@H]2CC[C@@H](OC(=O)C(C)(CO)CO)[C@H](OC)C2)CC(=O)[C@H](C)/C=C(\C)[C@@H](O)[C@@H](OC)C(=O)[C@H](C)C[C@H](C)/C=C/C=C/C=C/1C [CCI-779], which “Body Weight (g) end” value [4] is on record?
**A.** 17.7 g

**Q.** And the “Body Weight (g) start” value [4]?
**A.** 19.9 g

**Q.** And the RTV [4]?
**A.** 17 ± 7.0

**Q.** What about the “T/C (%)” value [4] of the same compound?
**A.** 69.0%

**Q.** What about the “TV (mm^3) d21” value [4] of the same compound?
**A.** 1446 ± 630 mm^3

**Q.** And the “TV (mm^3) d0” value ([4]; baseline)?
**A.** 85 ± 17 mm^3

**Q.** And the “binding with FKBP12” value (FKBP-12 protein)?
**A.** concentration-dependently bind

**Q.** What about the Kd (FKBP-12 protein; FKBP12) of the same compound?
**A.** 0.00102 µM

**Q.** And the “AUC0-t (ng · h/g or ng · h/ml)” value (in vivo; in vivo)?
**A.** 1098 ng·h/mL

**Q.** And the AUC(0-t) (in vivo; in vivo)?
**A.** 106 ng·h/mL

**Q.** And the “Sirolimus concentration, Blood Plasma, Mean Value” (in vivo; in vivo, 0.5 h)?
**A.** 123 ng/mL

**Q.** What about the “Sirolimus concentration, Liver, Mean Value” (in vivo; in vivo, 0.5 h) of the same compound?
**A.** 142 ng/g

**Q.** What about the “Sirolimus concentration, Tumor, Mean Value” (in vivo; in vivo, 0.5 h) of the same compound?
**A.** 9.03 ng/g

**Q.** And the “Sirolimus concentration, Blood Plasma, Mean Value” (in vivo; in vivo, 2 h)?
**A.** 143 ng/mL

**Q.** What about the “Sirolimus concentration, Liver, Mean Value” (in vivo; in vivo, 2 h) of the same compound?
**A.** 98.4 ng/g

**Q.** And the “Sirolimus concentration, Tumor, Mean Value” (in vivo; in vivo, 2 h)?
**A.** 36.3 ng/g

**Q.** And the “Sirolimus concentration, Blood Plasma, Mean Value” (in vivo; in vivo, 5 h)?
**A.** 58.2 ng/mL

**Q.** What about the “Sirolimus concentration, Liver, Mean Value” (in vivo; in vivo, 5 h) of the same compound?
**A.** 83.9 ng/g

**Q.** What about the “Sirolimus concentration, Tumor, Mean Value” (in vivo; in vivo, 5 h) of the same compound?
**A.** 30.3 ng/g

**Q.** What about the “Sirolimus concentration, Blood Plasma, Mean Value” (in vivo; in vivo, 12 h) of the same compound?
**A.** 14.2 ng/mL

**Q.** What about the “Sirolimus concentration, Liver, Mean Value” (in vivo; in vivo, 12 h) of the same compound?
**A.** 33.2 ng/g

**Q.** And the “Sirolimus concentration, Tumor, Mean Value” (in vivo; in vivo, 12 h)?
**A.** 19.1 ng/g

**Q.** And the “Sirolimus concentration, Blood Plasma, Mean Value” (in vivo; in vivo, 48 h)?
**A.** 3.08 ng/mL

**Q.** And the “Sirolimus concentration, Liver, Mean Value” (in vivo; in vivo, 48 h)?
**A.** 9.12 ng/g

**Q.** What about the “Sirolimus concentration, Tumor, Mean Value” (in vivo; in vivo, 48 h) of the same compound?
**A.** 16.7 ng/g

**Q.** What about the concentration at 0.5 h (in vivo; in vivo, Blood Plasma) of the same compound?
**A.** 20.5 ng/mL

**Q.** And the concentration at 12 h (in vivo; in vivo, Blood Plasma)?
**A.** 1.3 ng/mL

**Q.** And the concentration at 48 h (in vivo; in vivo, Blood Plasma)?
**A.** 0.16 ng/mL

**Q.** What about the concentration at 0.5 h (in vivo; [5]) of the same compound?
**A.** 30.9 ng/mL

**Q.** What about the concentration at 2 h (in vivo; [5]) of the same compound?
**A.** 11.7 ng/mL

**Q.** What about the concentration at 5 h (in vivo; [5]) of the same compound?
**A.** 3.67 ng/mL

**Q.** What about the concentration at 12 h (in vivo; [5]) of the same compound?
**A.** 1.27 ng/mL

**Q.** What about the concentration at 48 h (in vivo; [5]) of the same compound?
**A.** 0.164 ng/mL

**Q.** And the concentration at 0.5 h (in vivo; in vivo, Liver)?
**A.** 392 ng/g

**Q.** And the concentration at 2 h (in vivo; in vivo, Liver)?
**A.** 103 ng/g

**Q.** And the concentration at 5 h (in vivo; in vivo, Liver)?
**A.** 45.5 ng/g

**Q.** And the concentration at 0.5 h (in vivo; in vivo, Liver, Mean Value)?
**A.** 474 ng/g

**Q.** What about the concentration at 2 h (in vivo; in vivo, Liver, Mean Value) of the same compound?
**A.** 151 ng/g

**Q.** What about the concentration at 5 h (in vivo; in vivo, Liver, Mean Value) of the same compound?
**A.** 57.6 ng/g

**Q.** What about the concentration at 12 h (in vivo; in vivo, Liver, Mean Value) of the same compound?
**A.** 28.6 ng/g

**Q.** What about the concentration at 48 h (in vivo; in vivo, Liver, Mean Value) of the same compound?
**A.** 3.11 ng/g

**Q.** And the concentration at 2 h (in vivo; in vivo, Tumor)?
**A.** 31.1 ng/g

**Q.** What about the concentration at 12 h (in vivo; in vivo, Tumor) of the same compound?
**A.** 9.37 ng/g

**Q.** And the concentration at 48 h (in vivo; in vivo, Tumor)?
**A.** 6.48 ng/g

**Q.** What about the concentration at 2 h (in vivo; in vivo, Tumor, Mean Value) of the same compound?
**A.** 28.8 ng/g

**Q.** And the concentration at 5 h (in vivo; in vivo, Tumor, Mean Value)?
**A.** 16.6 ng/g

**Q.** And the concentration at 12 h (in vivo; in vivo, Tumor, Mean Value)?
**A.** 10.5 ng/g

**Q.** What about the concentration at 48 h (in vivo; in vivo, Tumor, Mean Value) of the same compound?
**A.** 6.52 ng/g

**Q.** And the Cmax (in vivo; in vivo, Cmax (ng/g or ng/ml))?
**A.** 30.9 ng/mL

**Q.** What about the Kp (in vivo; liver) of the same compound?
**A.** 16.8

**Q.** And the Kp (in vivo; tumor)?
**A.** 4.77
